From patent publication US8673911B2, “Inhibitors of histone deacetylase” (MethylGene Inc., priority 2007, dated 2014)
pIC50: −log10 of the molar value.

molecular target: one or more of HDAC4, HDAC5, HDAC6, HDAC7, HDAC8, HDAC9 and HDAC11; assay: Inhibition of histone deacetylase enzymatic activity (fluorogenic Boc-Lys(Ac)-AMC / Boc-Lys(trifluoroacetyl)-AMC substrate); type: biochemical; conditions: against one or more of HDAC4, HDAC5, HDAC6, HDAC7, HDAC8, HDAC9 and HDAC11
Method: Inhibition of HDAC-1,2,3,6 and 8
The following protocol is used to assay the compounds of the invention. In the assay, the buffer used is 25 mM HEPES, pH 8.0, 137 mM NaCl, 2.7 mM KCl, 1 mM MgCl2 and the substrate is Boc-Lys(Ac)-AMC in a 50 mM stock solution in DMSO. The enzyme stock solution is 4.08 μg/mL in buffer.
The compounds are pre-incubated (2 μl, in DMSO diluted to […] in buffer for transfer to assay plate) with enzyme (20 μL of 4.08 μg/mL) for 10 minutes at room temperature (35 μL pre-incubation volume). The mixture is pre-incubated for 5 minutes at room temperature. The reaction is started by bringing the temperature to 37° C. and adding 15 μL substrate. Total reaction volume is 50 μL. The reaction is stopped after 20 minutes by addition of 50 μL developer, prepared as directed by Biomol (FLUOR DE LYS™ developer, Cat. # KI-105). A plate is incubated in the dark for 10 minutes at room temperature before reading (λEx=360 nm, λEm=470 nm, Cutoff filter at 435 nm).
Inhibition of Class II HDAC and HDAC-11
A 30 mM stock of Boc-Lys(trifluoroacetyl)-AMC substrate is prepared in DMSO. 2 μL test compound in DMSO is diluted to 50 μL in buffer (25 mM HEPES, pH 8.0, 137 mM NaCl, 2.7 mM KCl, 1 mM MgCl2, 0.1% BSA) and pre-incubated with HDAC enzyme (30 μL of a final enzyme concentration of 0.1-0.2 nM) for 10 minutes at room temperature. Reaction is started by adding 18 μL Boc-Lys(trifluoroacetyl)-AMC substrate and incubating at 37° C. for 20-30 minutes. The reaction is stopped by adding 50 μL trypsin (1 mg/mL) and a known HDAC inhibitor. The plate is then incubated in the dark for 20 minutes at room temperature and read with Ex=360 nm, Em=470 nm, cutoff filter at 435 nm.

| SMILES | pIC50 |
| --- | --- |
| O=C(NO)c1ccccc1-n1cccc1 [Compound 21, N-hydroxy-2-(lH-pyrrol-1-yl)benzamide] | 5.30 to 6.12 |
| O=C(NO)c1cn(-c2ccccc2)nc1-c1ccccc1 [Compound 32, N-hydroxy-1,3-diphenyl-1H-pyrazole-4-carboxamidc] | 6.12 to 6.30 |
| Cc1cscc1-c1ccc(C(=O)NO)c(-c2cscc2C)c1 [Compound 51, N-hydroxy-2,4-bis(4-methylthiophen-3-yl)benzamide] | > 6.60 |
| O=C(NO)c1sc(-c2ccccc2)nc1-c1ccccc1 [Compound 74, N-hydroxy-2,4-diphenylthiazole-5-carboxamide] | > 6.60 |
| O=C(NO)c1sc(-c2ccccc2)cc1-c1ccccc1 [Compound 86, N-hydroxy-3,5-diphenylthiophene-2-carboxamide] | > 6.60 |
| O=C(NO)c1sc(-c2ccccc2)cc1-c1ccccc1 [Compound 89, N-hydroxy-3,5-diphenylthiophene-2-carboxamide] | 6.30 to 6.60 |
| O=C(NO)c1sc(-c2ccccc2)cc1-c1ccccc1 [Compound 92, N-hydroxy-3,5-diphenylthiophene-2-carboxamide] | > 6.60 |
| O=C(NO)c1ccc(C2=Nc3ccccc3Oc3ccccc32)cc1-c1ccccc1 [Compound 104, (Z)-5-(dibenzo[b,f][1,4]oxazepin-11-yl)-N-hydroxybiphenyl-2-carboxamide] | > 6.60 |
| O=C(NO)c1cn(Cc2ccccc2)nc1-c1ccccc1 [Compound 106, 1-benzyl-N-hydroxy-3-phenyl 1H-pyrazole-4-carboxamide] | 6.30 to 6.60 |
| O=C(NO)c1sc(-c2ccc(N3CCOCC3)cc2)nc1-c1ccccc1 [Compound 109, N-hydroxy-2-(4-morpholino-phenyl)-4-phenylthiazole-5-carboxamide] | > 6.60 |
| O=C(NO)c1sc(-c2csc3ccccc23)nc1-c1ccccc1 [Compound 110, 2-(benzo[b]thiophen-3-yl)-N-hydroxy-4-phenylthiazole-5-carboxamide] | > 6.60 |
| O=C(NO)c1sc(N2CCCCC2)nc1-c1ccccc1 [Compound 117, N-hydroxy-4-phenyl-2-(piperidin-1-yl)thiazole-5-carboxamide] | > 6.60 |
| O=C(NO)c1sc(-c2cccnc2)nc1-c1ccccc1 [Compound 120, N-hydroxy-4-phenyl-2-(pyridin-3-yl)thiazole-5-carboxamide] | > 6.60 |
| O=C(NO)c1sc(N2CCCc3ccccc32)nc1-c1ccccc1 [Compound 121, 2-(3,4-dihydroquinolin-1(2H)-yl)-N-hydroxy-4-phenylthiazole-5-carboxamide] | > 6.60 |
| O=C(NO)c1sc(-c2ccncc2)nc1-c1ccccc1 [Compound 122, N-hydroxy-4-phenyl-2-(pyridin-4-yl)thiazole-5-carboxamide] | > 6.60 |
| O=C(NO)c1sc(COc2ccccc2)cc1-c1ccccc1 [Compound 125, N-hydroxy-5-(phenoxymethyl)-3-phenylthiophene-2-carboxamide] | > 6.60 |

| SMILES | pIC50 |
| --- | --- |
| O=C(NO)c1sc2ccc(NS(=O)(=O)c3ccccc3)cc2c1-c1ccccc1 [Compound 126, N-hydroxy-3-phenyl-5-(phenylsulfonamido) benzo[b] thiophene-2-carboxamide] | 6.12 to 6.30 |
| O=C(NO)c1sc(Cc2ccccc2)cc1-c1ccccc1 [Compound 130, 5-benzyl-N-hydroxy-3-phenylthiophene-2-carboxamide] | > 6.60 |
| O=C(Nc1ccc2sc(C(=O)NO)c(-c3ccccc3)c2c1)OCc1ccccc1 [Compound 131, benzyl 2-(hydroxycarbamoyl)-3-phenylbenzo[b] thiophen-5-ylcarbamate] | 6.12 to 6.30 |
| O=C(NO)c1sc(C2CCN(Cc3ccccc3)CC2)nc1-c1ccccc1 [Compound 132, 2-(1-benzylpiperidin-4-yl)-N-hydroxy-4-phenylthiazole-5-carboxamide] | > 6.60 |
| O=C(NO)c1sc(C2CCN(C(=O)c3ccccc3)CC2)nc1-c1ccccc1 [Compound 133, 2-(1-benzoylpiperidin-4-yl)-N-hydroxy-4-phenylthiazole-5-carboxamide] | > 6.60 |
| O=C(NO)c1sc(-c2ccc3c(c2)CCO3)nc1-c1ccccc1 [Compound 139, 2-(2,3-dihydrobenzofuran-5-yl)-N-hydroxy-4-phenylthiazole-5-carboxamide] | 5.30 to 6.12 |
| O=C(NO)c1sc(-c2cccs2)nc1-c1ccccc1 [Compound 140, N-hydroxy-4-phenyl-2-(thiophen-2-yl)thiazole-5-carboxamide] | 6.12 to 6.30 |
| O=C(NO)c1cnc(-c2ccccc2)nc1-c1ccccc1 [Compound 141, N-hydroxy-2,4-diphenylpyrimidine-5-carboxamide] | 6.30 to 6.60 |
| O=C(NO)c1sc(C2CCN(Cc3ccncc3)CC2)nc1-c1ccccc1 [Compound 144, N-hydroxy-4-phenyl-2-(1-(pyridin-4-ylmethyl)piperidin-4-yl)thiazole-5-carboxamide] | > 6.60 |
| O=C(NO)c1sc(C2CCN(C(=O)N3CCCC3)CC2)nc1-c1ccccc1 [Compound 145, N-hydroxy-4-phenyl-2-(1-(pyrrolidine-1-carbonyl)piperidin-4-yl)thiazole-5-carboxamide] | > 6.60 |
| O=C(NO)c1sc(-c2ccc(OCCN3CCOCC3)cc2)nc1-c1ccccc1 [Compound 146, N-hydroxy-2-(4-(2-morpholinoethoxy)phenyl)-4-phenylthiazole-5-carboxamide] | > 6.60 |
| CCOC(=O)N1CCC(c2nc(-c3ccccc3)c(C(=O)NO)s2)CC1 [Compound 147, ethyl 4-(5-(hydroxycarbamoyl)-4-phenylthiazol-2-yl)piperidine-1-carboxylate] | > 6.60 |
| CS(=O)(=O)N1CCC(c2nc(-c3ccccc3)c(C(=O)NO)s2)CC1 [Compound 148, N-hydroxy-2-(1-(methylsulfonyl)piperidin-4-yl)-4-phenylthiazole-5-carboxamide] | > 6.60 |
| O=C(NO)c1sc(C(c2ccccc2)c2ccccc2)nc1-c1ccccc1 [Compound 150, 2-benzhydryl-N-hydroxy-4-phenylthiazole-5-carboxamide] | > 6.60 |
| O=C(NO)c1sc(C2CCN(S(=O)(=O)c3ccccc3)CC2)nc1-c1ccccc1 [Compound 151, N-hydroxy-4-phenyl-2-(1-(phenylsulfonyl)piperidin-4-yl)thiazole-5-carboxamide] | > 6.60 |

Second part, the compound after the results:

| pIC50 | SMILES |
| --- | --- |
| 5.30 to 6.12 | O=C(NO)c1ccccc1-c1cccc(-c2ccccc2)c1 [Compound 13] |
| 5.30 to 6.12 | COc1cccc(-c2ccccc2C(=O)NO)c1 [Compound 19, N-hydroxy-3′-melhoxybipheny 1-2-carboxamide] |
| 5.30 to 6.12 | Cc1cscc1-c1ccccc1C(=O)NO [Compound 24, N-hydroxy-2-(4-mcthylthiophen-3-yl)benzamide] |
| 5.30 to 6.12 | O=C(NO)c1ccccc1-c1cccc([N+](=O)[O-])c1 [Compound 26, N-hydroxy-3′-nitrobiphenyl-2-carboxamide] |
| 5.30 to 6.12 | O=C(NO)c1ccccc1-c1cccc(F)c1 [Compound 27, 3′-fluoro-N-hydroxybiphenyl-2-carboxamide] |
| 6.12 to 6.30 | Cc1cscc1-c1cccc(-c2ccccc2C(=O)NO)c1 [Compound 29, N-hydroxy-3′-(4-methyl-thiophen-3-yl) biphcnyl-2-carboxamidc] |
| 6.12 to 6.30 | COc1cccc(-c2cc(C)ccc2C(=O)NO)c1 [Compound 33, N-hydroxy-3′-methoxy-5-mcthylbiphenyl-2-carboxamide] |
| 5.30 to 6.12 | COc1cccc(-c2ccc(C(=O)NO)c(-c3cccc(OC)c3)c2)c1 [Compound 50] |
| > 6.60 | O=C(NO)c1ccc(-c2ccccc2)cc1-c1ccccc1 [Compound 52] |
| > 6.60 | COc1ccc(-c2nc(-c3ccc(F)cc3)c(C(=O)NO)s2)cc1 [Compound 80, 4-(4-fluorophenyl)-N-hydroxy-2-(4-methoxyphenyl)thiazole-5-carboxamide] |
| 6.12 to 6.30 | COc1cccc(-c2cc(F)ccc2C(=O)NO)c1 [Compound 98, 5-fluoro-N-hydroxy-3′-methoxybiphenyl-2-carboxamidc] |
| 5.30 to 6.12 | O=C(NO)c1cn(-c2ccccc2)nc1-c1ccc(F)cc1 [Compound 108, 3-(4-fluorophenyl)-N-hydroxy-1-phenyl-1H-pyrazole-4-carboxamide] |
| > 6.60 | CN(C)c1ccc(-c2ccc(C(=O)NO)c(-c3ccccc3)c2)cc1 [Compound 116, 5-(4-dimethylamino-phenyl)-N-hydroxybiphenyl-2-carboxamide] |
| 6.30 to 6.60 | O=C(NO)c1cnc(-c2ccccc2)nc1-c1cccc(F)c1 [Compound 143, 4-(3-fluorophenyl)-N-hydroxy-2-phenylpyrimidine-5-carboxamide] |
